Patent US20250276026A1, “TRANSIENT COMMENSAL MICROORGANISM FOR IMPROVING GUT HEALTH” (INFINANT HEALTH, INC, priority 2016, published 2025)

Test system: Clostridium difficile
Experiment: Outbreak of Clostridium difficile hemorrhagic diarrhea in newborn foals; probiotic formulation vs standard of care
Format: in vivo
Details: all animals dosed at birth with 6.6 mg/kg
Procedure: Newborn foals born to mares at a large horse breeding barn were monitored during an outbreak of severe hemorrhagic diarrhea among the foals. […] Seventeen foals were born during the initial phase of the outbreak, of which fifteen animals became ill and required intervention according to the standard of care as described in the Merck Veterinary Manual. Standard of care involved metronidazole treatment given at a dose of 15-20 mg/kg, PO, tid-qid. and may also involve administration of large volumes of interveneous polyionic fluids, with supplemental electrolytes (potassium, magnesium, and calcium), plasma or synthetic colloids for low oncotic pressure, anti-inflammatoires such as flunixin meglumine, and broad-spectrum antibiotics if the horse is leukopenic and at risk of bacterial translocation across the compromised GI tract. Polymyxin B may aid in binding systemic endotoxin.
Of these seventeen foals, fifteen developed loose stool or diarrhea lasting 3-4 days, and 2 died as a result of the infection. After observing the outbreak, the next foals were provided a formulation of 3×10^12 CFU Bifidobacterium longum subsp. infantis EVBL001 and 5×10^9 CFU of Lactobacillus plantarum EVLP001 every 12 hours. The two foals that were provided with the formulation at 12 hours of age developed a mild diarrhea, but recovered within 8 hours compared to 3-4 days with standard of care. […]

CO/N=C(\C(=O)N[C@@H]1C(=O)N2C(C(=O)O)=C(CSC(=O)c3ccco3)CS[C@H]12)c1csc(N)n1 [ceftiofur]
effect on health outcome related to diarrhea: did not affect health outcome
